In patent publication US4027039A (priority 1975, dated 1977):
Where “and” joins values, the source holds several entries; their conditions need not be identical. Equal values may be shown once. Entries after “also recorded” stand apart in the source; their conditions may differ. Where a name gives a salt, the structure may show the parent alone. Read-outs that look alike come from different tables or passages of the source.

What was measured:
Columbia SK Polio virus = assay type: in vivo, mouse; conditions: mouse, in vivo
Vaccinia virus = assay type: in vivo, rabbit; conditions: rabbit, in vivo
Neurovaccinia virus = assay: Neurovaccinia in mice; conditions: intraperitoneal
Vaccinia IHD virus = assay type: in vivo, mouse
Herpes virus = conditions: total dose 5 μg; hydrochloride
viral infections = assay: Antiviral screening in animals, general statements; conditions: mouse, in vivo
[1] = tested on: Influenza, Ann Arbor virus; assay: Influenza Ann Arbor in mice, subcutaneous; late read day 9 (Table 11), 7 (Tables 12, 14), 5 (Table 13); assay type: in vivo, mouse
Influenza PR 8 virus = assay: Influenza PR 8 in mice, oral; schedule by table; late read day 6 (Table 37), 7 (33, 36), 8 (32, 35, 47), 10 (38); control fraction 18/20 (Table 32), 19/20 (Table 35), else 100%; assay type: in vivo, mouse
[2] = tested on: Influenza, Ann Arbor virus; assay: Influenza Ann Arbor in mice, oral; schedule by table; late read day 5 (Tables 15, 25, 29, 30), 6 (18, 20, 22, 23, 26, 27, 28, 54), 7 (14, 19, 21, 24, 53, 56), 8 (16, 17, 51), 9 (11, 55); assay type: in vivo, mouse

SMILES: CCC(C)=NNC(N)=S [thiosemicarbazone]
- instances of statistically significant geometric mean survival time (Columbia SK Polio virus): two
- effect on pox formation (Vaccinia virus): very striking effects of the drug on the pox formation; also recorded: highly significant diminution of pox formation

SMILES: NNC(N)=O [semicarbazide, hydrochloride]
- No. animals surviving after 6 days (Neurovaccinia virus; total dose .0075 μg): 1/2
- Survivors (Neurovaccinia virus; total dose .75 μg): 0
- Statistical Significance of Tail Lesions (Vaccinia IHD virus; 10 ng, day 6): < .01
- Statistical Significance of Tail Lesions (Vaccinia IHD virus; 10 ng, day 11): < .05
- Statistical Significance of Tail Lesions (Vaccinia IHD virus; 10 ng, day 12): < .05
- Statistical Significance of Tail Lesions (Vaccinia IHD virus; 10 ng, day 17): < .05
- Statistical Significance of Tail Lesions (Vaccinia IHD virus; 1 μg, day 6): < .01
- Statistical Significance of Tail Lesions (Vaccinia IHD virus; 1 μg, day 8): < .01
- Statistical Significance of Tail Lesions (Vaccinia IHD virus; 1 μg, day 10): < .01
- Statistical Significance of Tail Lesions (Vaccinia IHD virus; 1 μg, day 11): < .01
- Statistical Significance of Tail Lesions (Vaccinia IHD virus; 1 μg, day 12): < .01
- Statistical Significance of Tail Lesions (Vaccinia IHD virus; 1 μg, day 14): < .01
- Statistical Significance of Tail Lesions (Vaccinia IHD virus; 1 μg, day 17): < .01
- Statistical Significance of Tail Lesions (Vaccinia IHD virus; 1 μg, day 21): < .05
- Statistical Significance of Tail Lesions (Vaccinia IHD virus; 10 [μg], day 7): < .01
- Statistical Significance of Tail Lesions (Vaccinia IHD virus; 10 [μg], day 10): < .05
- Statistical Significance of Tail Lesions (Vaccinia IHD virus; 10 [μg], day 11): < .01
- Statistical Significance of Tail Lesions (Vaccinia IHD virus; 10 [μg], day 12): < .01
- Statistical Significance of Tail Lesions (Vaccinia IHD virus; 10 [μg], day 14): < .01
- Statistical Significance of Tail Lesions (Vaccinia IHD virus; 10 [μg], day 17): < .01
- Statistical Significance of Tail Lesions (Vaccinia IHD virus; 10 [μg], day 21): < .05
- Statistical Significance of Tail Lesions (Vaccinia IHD virus; 100 [ng], day 7): < .05
- Statistical Significance of Tail Lesions (Vaccinia IHD virus; 100 [ng], day 11): < .05
- Statistical Significance of Tail Lesions (Vaccinia IHD virus; 100 [ng], day 12): < .05
- Statistical Significance of Tail Lesions (Vaccinia IHD virus; 100 [ng], day 14): < .05
- Statistical Significance of Tail Lesions (Vaccinia IHD virus; 100 [ng], day 17): < .01
- Statistical Significance of Tail Lesions (Vaccinia IHD virus; 100 [ng], day 21): < .01
- No. animals surviving after 6-9 days (Herpes virus): 5
- activity in words (viral infections): effective

SMILES: NN [hydrazine, hydrate]
- No. animals surviving after 5-9 days ([1]; total dose 5 μg): 6
- Survivors ([1]; total dose 5 μg, hydrate): 3
- No. animals surviving after 5-9 days ([1]; total dose 50 μg, hydrate): 7 and 4
- Survivors ([1]; total dose 500 μg): 0
- No. animals surviving after 5-9 days ([1]; total dose 500 μg, hydrate): 6 and 3
- No. animals surviving after 5-9 days ([1]; total dose .00005 μg): 1
- Survivors ([1]; total dose .00005 μg): 0
- No. animals surviving after 5-9 days ([1]; total dose .0005 μg, hydrate): 5 and 7
- No. animals surviving after 5-9 days ([1]; total dose .005 μg, hydrate): 3 and 4
- No. animals surviving after 5-9 days ([1]; total dose .05 μg, hydrate): 4 and 6
- No. animals surviving after 5-9 days ([1]; total dose .5 μg, hydrate): 7 and 5
- activity in words (viral infections): active
- No. animals surviving after 6-10 days (Influenza PR 8 virus; total dose 5 μg): 1
- No. animals surviving when 100% (or given fraction) of controls are dead (Influenza PR 8 virus; total dose 5 μg): 0
- Survivors (Influenza PR 8 virus; total dose 5 μg): 0
- No. animals surviving after 6-10 days (Influenza PR 8 virus; total dose 50 μg): 1
- No. animals surviving when 100% (or given fraction) of controls are dead (Influenza PR 8 virus; total dose 50 μg): 0
- Survivors (Influenza PR 8 virus; total dose 50 μg): 0
- No. animals surviving after 6-10 days (Influenza PR 8 virus; total dose .000005 μg): 4
- No. animals surviving when 100% (or given fraction) of controls are dead (Influenza PR 8 virus; total dose .000005 μg, hydrate): 4
- Survivors (Influenza PR 8 virus; total dose .0005 μg, hydrate): 1
- No. animals surviving when 100% (or given fraction) of controls are dead (Influenza PR 8 virus; total dose .5 μg): 1
- Survivors (Influenza PR 8 virus; total dose .5 μg): 1
- No. animals surviving after 6-10 days (Influenza PR 8 virus; total dose .5 μg, hydrate): 1
- No. animals surviving after 5-9 days ([2]; total dose 5 μg): 4
- Survivors ([2]; total dose 5 μg): 0
- No. animals surviving after 5-9 days ([2]; total dose 50 μg): 4
- Survivors ([2]; total dose 50 μg): 0
- No. animals surviving after 5-9 days ([2]; total dose 500 μg): 5
- Survivors ([2]; total dose 500 μg): 0
- No. animals surviving after 5-9 days ([2]; total dose .00005 μg): 6
- Survivors ([2]; total dose .00005 μg): 0
- No. animals surviving after 5-9 days ([2]; total dose .0005 μg): 6
- Survivors ([2]; total dose .0005 μg): 0
- No. animals surviving after 5-9 days ([2]; total dose .005 μg): 3
- Survivors ([2]; total dose .005 μg): 0
- No. animals surviving after 5-9 days ([2]; total dose .05 μg): 3
- Survivors ([2]; total dose .05 μg): 1
- No. animals surviving after 5-9 days ([2]; total dose .5 μg): 6
- Survivors ([2]; total dose .5 μg): 0
